Results: PubChem BioAssay AID1963425 (Molecular Pharmacology Branch, DTP, NCI, 2024)
pIC50: −log10 of the molar value. One block for each compound: values may come before it.

Tested on: 323965-272-R-J2-PDC complex spheroid growth, % test/control
Assay: Anticancer human tumor 323965-272-R-J2-PDC patient-derived pancreatic carcinoma cell line growth inhibition [Asc]
Conditions: for pIC50: curve of first compound; for viability, T/C: stronger effect = lower value
Procedure: Multicellular complex tumor spheroid response to apoptosis pathway targeting inhibitors Alrizomadlin, Pelcitoclax, and Dasminapant in combination with a variety of drugs and investigational agents in selected tumor cell lines
The MDM2 inhibitor alrizomadlin, the Bcl-2/Bcl-xL inhibitor pelcitoclax, and the IAPs inhibitor dasminapant were evaluated both individually and in combination with standard of care and investigational anticancer small molecules within a complex spheroid model of solid tumors. . Complex spheroids include a stromal component modeled by human endothelial cells (HUVEC) and fibroblasts modeled by human mesenchymal stem cells (MSCs). The concentration ranges selected for each drug and investigational agent were based upon clinically achievable concentrations if the clinical Cmax of the agent was known.
Compounds. The drugs and investigational agents: alrizomadlin (APG-115; NSC831270), pelcitoclax (APG-1252; NSC835773), dasminapant (APG-1387;NSC834197), TAK-243 (NSC785004), copanlisib (NSC809693), olaparib (NSC753686), talazoparib (NSC767125), cobimetinib (NSC 768068), eltanexor (KPT-8602, NSC 794443), abemaciclib (NSC 768073), sotorasib (NSC818433), adagrasib (NSC 831453), MRTX-1133 (NSC 836407), Iadademestat (ORY1001, NSC 806812), and RMC-4630 (NSC839698), were obtained from the NCI Developmental Therapeutics Program Chemical Repository. The FDA-approved anticancer drug set is available from the Developmental Therapeutics Program at https://dtp.cancer.gov/organization/dscb/obtaining/available plates.htm. […] The stock solutions were prepared in dimethyl sulfoxide (DMSO, Sigma-Aldrich, St. Louis, MO, cat. D2650) at 800-fold the tested concentration and stored at -70 degrees C prior to their use. All drugs and investigational agents were tested over a range starting from a high concentration at or near the clinical Cmax and decreasing in half-log increments. If the clinical Cmax for an agent had not been determined, the highest concentration tested was 10 microM.
The patient-derived cancer (PDC) cell lines include five colon adenocarcinomas: 186277-243-T-J2-PDC, 616215-338-R-J1-PDC, 439559-082-T-J2-PDC, 463943-066-T-J2-PDC, and 519858-162-T-J1-PDC; three pancreatic carcinomas: 323965-272-R-J2-PDC, 521955-158-R6-J3-PDC, and 521955-158-R2-J5-PDC; two uterine sarcomas: 327498-152-R-J2-PDC and 993429-296-R-J1-PDC; two rhabdomyosarcomas: 755483-174-R-J1-PDC and 772245-204-R-J1-PDC; two soft tissue sarcomas: 126254-015-R-J1-PDC and 494315-158-R-J1-PDC; two malignant fibrous histiocytomas: 317291-083-R-J1-PDC and 596521-263-R-J1-PDC; two breast carcinomas: 171881-019-R-J1-PDC and 885512-296-R-J2-PDC; and one ovarian carcinoma: 6556581-035-R-J-PDC were obtained from the NCI PDMR, (https://pdmr.cancer.gov). The established cell lines HSSY-2 synovial sarcoma (RRID:CVCL 8719), SYO-1 synovial sarcoma (RRID:CVCL_7146), MPNST malignant peripheral neural sheath tumor were obtained from the Sloan Kettering Institute. The following established cell lines were purchased from the American Type Culture Collection (ATCC, Manassas, VA), Sor the received from the NCI repository:, PANC-1 pancreatic carcinoma (CRL-1469, RRID:CVCL_0480), OVCAR-5 ovarian carcinoma (RRID:CVCL_1628), OVCAR-8 ovarian carcinoma (RRID:CVCL_1629), , MCF-7 breast carcinoma (CRL-12584, RRID:CVCL_0031), MDA-MB-231 breast carcinoma (CRL-12532, RRID:CVCL_0062), NCI-H1876 small cell lung carcinoma (CRL-5902, RRID:CVCL_1503), NCI-H510A small cell lung carcinoma (HTB-184, RRID:CVCL_1565), NCI-H1417 (CRL-5869, RRID:CVCL_1469), and NCI-H196 small cell lung carcinoma (CRL-5823, RRID:CVCL_1509). Dr. Peter Houghton (Greehey Children's Cancer Research Institute, University of Texas Health Science Center, San Antonio, TX) provided Rh-18 rhabdomyosarcoma (RRID:CVCL_1659). Pooled donor human umbilical vein endothelial cells (HUVEC, Lonza, cat. CC-2519) and human mesenchymal stem cells (hMSC, Lonza, cat. PT-2501) were purchased from Lonza (Walkersville, MD).
Cell Culture. […]

[1] = second compound 0.00949 µM, first compound 0.00316 µM
[2] = second compound 0.00949 µM, first compound 0.01 µM
[3] = second compound 0.00949 µM, first compound 0.0316 µM
[4] = second compound 0.00949 µM, first compound 0.1 µM
[5] = second compound 0.00949 µM, first compound 0.316 µM
[6] = second compound 0.00949 µM, first compound 1 µM
[7] = second compound 0.03 µM, first compound 0.00316 µM
[8] = second compound 0.03 µM, first compound 0.01 µM
[9] = second compound 0.03 µM, first compound 0.0316 µM
[10] = second compound 0.03 µM, first compound 0.1 µM
[11] = second compound 0.03 µM, first compound 0.316 µM
[12] = second compound 0.03 µM, first compound 1 µM
[13] = second compound 0.0949 µM, first compound 0.00316 µM
[14] = second compound 0.0949 µM, first compound 0.01 µM
[15] = second compound 0.0949 µM, first compound 0.0316 µM
[16] = second compound 0.0949 µM, first compound 0.1 µM
[17] = second compound 0.0949 µM, first compound 0.316 µM
[18] = second compound 0.0949 µM, first compound 1 µM
[19] = second compound 0.3 µM, first compound 0.00316 µM
[20] = second compound 0.3 µM, first compound 0.01 µM
[21] = second compound 0.3 µM, first compound 0.0316 µM
[22] = second compound 0.3 µM, first compound 0.1 µM
[23] = second compound 0.3 µM, first compound 0.316 µM
[24] = second compound 0.3 µM, first compound 1 µM
[25] = second compound 0.949 µM, first compound 0.00316 µM
[26] = second compound 0.949 µM, first compound 0.01 µM
[27] = second compound 0.949 µM, first compound 0.0316 µM
[28] = second compound 0.949 µM, first compound 0.1 µM
[29] = second compound 0.949 µM, first compound 0.316 µM
[30] = second compound 0.949 µM, first compound 1 µM
[31] = second compound 3 µM, first compound 0.00316 µM
[32] = second compound 3 µM, first compound 0.01 µM
[33] = second compound 3 µM, first compound 0.0316 µM
[34] = second compound 3 µM, first compound 0.1 µM
[35] = second compound 3 µM, first compound 0.316 µM
[36] = second compound 3 µM, first compound 1 µM
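Also: compound exposure lasted 7 days starting three days after spheroid seeding.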
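For viability, T/C in this document: 100% = DMSO vehicle control wells with viability set relative to vehicle.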

- pIC50 (second compound 0.00949 µM): < 6.00
- pIC50 (second compound 0.03 µM): < 6.00
- pIC50 (second compound 0.0949 µM): < 6.00
- pIC50 (second compound 0.3 µM): < 6.00
- pIC50 (second compound 0.949 µM): < 6.00
- pIC50 (second compound 3 µM): < 6.00
SMILES: CCN1CCN(Cc2ccc(Nc3ncc(F)c(-c4cc(F)c5nc(C)n(C(C)C)c5c4)n3)nc2)CC1 + CCN1C(C(=O)NC23CCC(C(=O)O)(CC2)CC3)C(c2cccc(Cl)c2F)C2(C(=O)Nc3cc(Cl)ccc32)C12CCCCC2
- viability, T/C [1]: 107%
- viability, T/C [2]: 107%
- viability, T/C [3]: 105%
- viability, T/C [4]: 86.2%
- viability, T/C [5]: 68.7%
- viability, T/C [6]: 77%
- viability, T/C [7]: 103%
- viability, T/C [8]: 104%
- viability, T/C [9]: 96.7%
- viability, T/C [10]: 84.5%
- viability, T/C [11]: 69.5%
- viability, T/C [12]: 65.8%
- viability, T/C [13]: 118%
- viability, T/C [14]: 112%
- viability, T/C [15]: 92.2%
- viability, T/C [16]: 80%
- viability, T/C [17]: 70.3%
- viability, T/C [18]: 65.2%
- viability, T/C [19]: 111%
- viability, T/C [20]: 104%
- viability, T/C [21]: 96.6%
- viability, T/C [22]: 78.9%
- viability, T/C [23]: 85.1%
- viability, T/C [24]: 77.1%
- viability, T/C [25]: 99.8%
- viability, T/C [26]: 107%
- viability, T/C [27]: 95.9%
- viability, T/C [28]: 85.8%
- viability, T/C [29]: 73.1%
- viability, T/C [30]: 77.5%
- viability, T/C [31]: 101%
- viability, T/C [32]: 115%
- viability, T/C [33]: 97%
- viability, T/C [34]: 77%
- viability, T/C [35]: 78%
- viability, T/C [36]: 78.9%

- pIC50 (second compound 0.00949 µM): 6.92
- pIC50 (second compound 0.03 µM): 6.82
- pIC50 (second compound 0.0949 µM): 6.90
- pIC50 (second compound 0.3 µM): 6.87
- pIC50 (second compound 0.949 µM): 6.92
- pIC50 (second compound 3 µM): 7.09
SMILES: O=C(c1ccc(F)c(F)c1Nc1ccc(I)cc1F)N1CC(O)([C@@H]2CCCCN2)C1 + CCN1C(C(=O)NC23CCC(C(=O)O)(CC2)CC3)C(c2cccc(Cl)c2F)C2(C(=O)Nc3cc(Cl)ccc32)C12CCCCC2
- viability, T/C [1]: 110%
- viability, T/C [2]: 88.1%
- viability, T/C [3]: 75%
- viability, T/C [4]: 52.1%
- viability, T/C [5]: 32.1%
- viability, T/C [6]: 19.9%
- viability, T/C [7]: 113%
- viability, T/C [8]: 92%
- viability, T/C [9]: 86.3%
- viability, T/C [10]: 57.3%
- viability, T/C [11]: 33.6%
- viability, T/C [12]: 19.4%
- viability, T/C [13]: 103%
- viability, T/C [14]: 89.5%
- viability, T/C [15]: 75.2%
- viability, T/C [16]: 55.3%
- viability, T/C [17]: 32.7%
- viability, T/C [18]: 19.1%
- viability, T/C [19]: 93.7%
- viability, T/C [20]: 106%
- viability, T/C [21]: 75.7%
- viability, T/C [22]: 54.6%
- viability, T/C [23]: 37.1%
- viability, T/C [24]: 19.2%
- viability, T/C [25]: 96.3%
- viability, T/C [26]: 95.9%
- viability, T/C [27]: 72.9%
- viability, T/C [28]: 54%
- viability, T/C [29]: 33.4%
- viability, T/C [30]: 19.7%
- viability, T/C [31]: 97.6%
- viability, T/C [32]: 85.2%
- viability, T/C [33]: 65.6%
- viability, T/C [34]: 46.7%
- viability, T/C [35]: 29.6%
- viability, T/C [36]: 18.3%
